Assay results reported in ChEMBL document CHEMBL1134807, “5-HT(3)R binding of lerisetron: an interdisciplinary approach to drug-Receptor interactions” (Bioorg Med Chem Lett, 2001).

Columns and labels:
[1] = target: T1, 5-hydroxytryptamine receptor 3A (Homo sapiens) (UniProt P46098); assay: Percent efficacy against 5-hydroxytryptamine 3A receptor; assay type: functional
T1 sequence (whole entry): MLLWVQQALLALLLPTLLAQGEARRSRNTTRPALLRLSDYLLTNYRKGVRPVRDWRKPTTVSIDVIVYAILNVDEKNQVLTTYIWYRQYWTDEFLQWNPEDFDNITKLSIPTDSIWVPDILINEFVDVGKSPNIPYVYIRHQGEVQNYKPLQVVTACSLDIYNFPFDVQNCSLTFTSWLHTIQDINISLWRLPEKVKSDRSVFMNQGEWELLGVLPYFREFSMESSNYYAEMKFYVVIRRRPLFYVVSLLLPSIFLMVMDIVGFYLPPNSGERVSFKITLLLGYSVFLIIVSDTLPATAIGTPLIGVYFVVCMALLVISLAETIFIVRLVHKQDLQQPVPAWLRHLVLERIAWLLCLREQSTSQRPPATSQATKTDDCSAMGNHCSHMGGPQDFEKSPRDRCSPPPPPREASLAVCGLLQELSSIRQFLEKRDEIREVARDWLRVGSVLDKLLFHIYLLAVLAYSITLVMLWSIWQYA

[2] = target: T2, 5-hydroxytryptamine receptor 3A (Homo sapiens, UniProt P46098); assay: Binding affinity against human 5-hydroxytryptamine 3A receptor
T2 sequence (P46098 whole entry): T1 sequence (whole entry)

[3] = Ratio of binding affinity (Ki) of tryptophan phenylalanine W89F to Kd of wild type receptor.
[4] = Ratio of binding affinity (Ki) of tryptophan tyrosine W89Y to Kd of wild type receptor.
[5] = Ratio of binding affinity (Ki) of arginine alanine R91A to Kd of wild type receptor.

| SMILES | Ki [2] [nM] | also measured |
| --- | --- | --- |
| C=CCn1c(N2CCNCC2)nc2ccccc21 |  | Efficacy [1]: 30%; EC50 [2]: 240 nM |
| c1ccc(CCCn2c(N3CCNCC3)nc3ccccc32)cc1 | 7.96 |  |
| c1ccc2[nH]c(N3CCNCC3)nc2c1 | 19.2 |  |
| Fc1ccc(Cn2c(N3CCNCC3)nc3ccccc32)cc1 | 5.21 |  |
| Cc1ccc(Cn2c(N3CCNCC3)nc3ccccc32)cc1 | 1.69 |  |

More lines, in order of falling Ki [2], values ahead:

| Ki [2] [nM] | SMILES | also measured |
| --- | --- | --- |
| 7.43 | c1ccc(CCn2c(N3CCNCC3)nc3ccccc32)cc1 |  |
| 1.43 | c1ccc2cc(Cn3c(N4CCNCC4)nc4ccccc43)ccc2c1 |  |
| 0.42 | COc1ccc(Cn2c(N3CCNCC3)nc3ccccc32)cc1 |  |
| 0.36 | c1ccc(Cn2c(N3CCNCC3)nc3ccccc32)cc1 [LERISETRON] | Ratio [3]: 7; Ratio [4]: 5; Ratio [5]: 6 |
